SMILES strings stand for the structures. Values after ≈ are worked out from the molar mass of the structure shown.

The target in the first test is recombinant Pseudomonas aeruginosa LpxC (Pseudomonas aeruginosa (strain ATCC 15692 / DSM 22644 / CIP 104116 / JCM 14847 / LMG 12228 / 1C / PRS 101 / PAO1), UniProt P47205). The test is described as follows: Inhibition of LpxC enzymatic activity (fluorescamine assay). The format is biochemical. The settings on record: recombinant P. aeruginosa LpxC 5 nM, substrate 10 μM, 25° C., 120 minutes; read-out: IC50. On the procedure:
The degree of inhibition of the enzymatic activity of recombinant Pseudomonas aeruginosa LpxC by the compounds of the present disclosure under in vitro conditions was determined using the following method.
The experimental procedure is briefly described as follows: The test compound was first dissolved in DMSO to prepare a 10 mM stock solution. The reaction was carried out in a 96-well microplate. First, 20 μL of recombinant Pseudomonas aeruginosa LpxC (purchased from Signalway Antibody, product number AP74647-2) was added to each well, with a final concentration of 5 nM. 5 μL of the compound to be tested was then added, and the compound was diluted 4 times to 8 concentration points with a concentration range of 0.61-10,000 nM. 5 μL of LpxC substrate UDP-3-O—(R-3-hydroxydecanoyl)-GlcNAc (purchased from Biosynth Carbosynth, product number: mu75071) was added, with a final concentration of the substrate of 10 μM. The plate was incubated at 25° C. for 120 minutes. Then 20 μL of 2.0 mg/mL fluorescamine (purchased from sigmaaldrich, product number: F9015, solvent: 1:1 dimethylformamide/acetonitrile) was added to the reaction system, and mixed well for 10 minutes of reaction. Finally, 50 μL of 200 mM sodium phosphate buffer (pH 8.0) was added to terminate the reaction. Reading was carried out using a microplate reader (BMG), and the excitation and emission wavelengths were 390 and 495 nm respectively. By comparing with the fluorescence intensity ratio of the control group ([…]), the percentage inhibition rate of the compound at each concentration was calculated.
For the compound `C[C@H](O)c1nccn1Cc1cc(-c2ccc(C#Cc3ccc(CN4CC(C#N)C4)nc3)cc2)on1` [Example 119, (S)-1-((5-((4-(3-((2-(1-hydroxyethyl)-1H-imidazol-1-yl)methyl)isoxazol-5-yl)phenyl)ethynyl)pyridin-2-yl)methyl)azetidin-3-carbonitrile], the IC50 – broadly, the concentration that gives 50% inhibition – came out at 7.42 nM. In the case of `C[C@H](O)c1nccn1Cc1cc(-c2ccc(C#Cc3ccccc3C(=O)O)cc2)on1` [Example 106, (S)-2-((4-(3-((2-(1-hydroxyethyl)-1H-imidazol-1-yl)methyl)isoxazol-5-yl)phenyl)ethynyl) benzoic acid], the IC50 came to 68.9 nM. Turning to `C[C@H](O)c1nccn1Cc1cc(-c2ccc(C#Cc3ccc(OCC4CCN(C)CC4)cc3)cc2)on1` [Example 76, (S)-1-(1-((5-(4-((4-((1-methylpiperidin-4-yl)methoxy)phenyl)ethynyl)phenyl)isoxazol-3-yl)methyl)-1H-imidazol-2-yl) ethan-1-ol], the IC50 worked out at 12.9 nM.

In the case of `C[C@H](O)c1nccn1Cc1cc(-c2ccc(C#Cc3ccc(N4CCOCC4)cc3)cc2)on1` [Example 5], the IC50 is 72.3 nM.

In the case of `C[C@H](O)c1nccn1Cc1cc(-c2ccc(C#Cc3ccc(N4CCC(O)CC4)cc3)cc2)on1` [Example 41, (S)-1-(4-((4-(3-((2-(1-hydroxyethyl)-1H-imidazol-1-yl)methyl)isoxazol-5-yl)phenyl)ethynyl)phenyl)piperidin-4-ol], the IC50 was determined as 26.3 nM. With `C[C@H](O)c1nccn1Cc1cc(-c2ccc(C#Cc3ccc(Cn4ccnc4)cc3)cc2)on1` [Example 98, (S)-1-(1-((5-(4-((4-((1H-imida-zol-1-yl)methyl)phenyl)ethynyl)phenyl)isoxazol-3-yl)methyl)-1H-imidazol-2-yl)ethan-1-ol], the IC50 was 78.5 nM. Same read-out and setting: under `CC(=O)c1ccc(C#Cc2ccc(-c3cc(Cn4ccnc4[C@H](C)O)no3)cc2)cn1` [Example 103, (S)-1-(5-((4-(3-((2-(1-hydroxyethyl)-1H-imidazol-1-yl)methyl)isoxazol-5-yl)phenyl)ethynyl)pyridin-2-yl)ethan-1-one] stands 46.8 nM; under `C[C@H](O)c1nccn1Cc1cc(-c2ccc(C#Cc3ccc(CNCC(=O)O)nc3)cc2)on1` [Example 116], 47.9 nM. On to `C[C@H](O)c1nccn1Cc1cc(-c2ccc(C#Cc3ccc(CN4CC(C(N)=O)C4)nc3)cc2)on1` [Example 123, (S)-1-((5-((4-(3-((2-(1-hydroxyethyl)-1H-imidazol-1-yl)methyl)isoxazol-5-yl)phenyl)ethynyl)pyridin-2-yl)methyl)azetidin-3-carboxamide], for which the IC50 was found to be 8.22 nM. Regarding `C[C@H](O)c1nccn1Cc1cc(-c2ccc(C#Cc3ccc(OCCN4CCOCC4)cc3)cc2)on1` [Example 80, (S)-1-(1-((5-(4-((4-(2-morpho-linoethoxy)phenyl)ethynyl)phenyl)isoxazol-3-yl)methyl)-1H-imidazol-2-yl)ethan-1-ol], the IC50 was determined as 64.9 nM. The same measure, in the same setting: under `C[C@H](O)c1nccn1Cc1cc(-c2ccc(C#Cc3ccc(C#N)nc3)cc2)on1` [Example 120, (S)-5-((4-(3-((2-(1-hydroxyethyl)-1H-imidazol-1-yl)methyl)isoxazol-5-yl)phenyl)ethynyl)picolinonitrile] stands 77.1 nM; under `C[C@H](O)c1nccn1Cc1cc(-c2ccc(C#Cc3ccc(CN4CC(O)C4)nc3)cc2)on1` [Example 121, (S)-1-((5-((4-(3-((2-(1-hydroxyethyl)-1H-imidazol-1-yl)methyl)isoxazol-5-yl)phenyl)ethynyl)pyridin-2-yl)methyl)azetidin-3-ol], 22.3 nM; under `C[C@H](O)c1nccn1Cc1cc(-c2ccc(C#Cc3ccc(CN4CC(CC#N)C4)nc3)cc2)on1` [Example 118, (S)-2-(1-((5-((4-(3-((2-(1-hydroxyethyl)-1H-imidazol-1-yl)methyl)isoxazol-5-yl)phenyl)ethynyl)pyridin-2-yl)methyl)azetidin-3-yl)acetonitrile], 16.5 nM. `C[C@H](O)c1nccn1Cc1cc(-c2ccc(C#Cc3ccc(OC4CCC(C(=O)O)CC4)cc3)cc2)on1` (stereo partly drawn) [Example 79, (S)-4-(4-((4-(3-((2-(1-hydroxyethyl)-1H-imidazol-1-yl)methyl)isoxazol-5-yl)phenyl)ethynyl)phenoxy)cyclohexane-1-carboxylic acid]: the IC50 came out at 42.5 nM. `C[C@H](O)c1nccn1Cc1cc(-c2ccc(C#Cc3ccc(C(=O)N4CC(O)C4)cc3)cc2)on1` [Example 68, (S)-(3-hydroxyazetidin-1-yl)(4-((4-(3-((2-(1-hydroxyethyl)-1 H-imidazol-1-yl)methyl)isoxazol-5-yl)phenyl)ethynyl)phenyl)methanone]: the IC50 was 68.3 nM.

For the compound `C[C@H](O)c1nccn1Cc1cc(-c2ccc(C#Cc3ccc(S(N)(=O)=O)cc3)cc2)on1` [Example 83, (S)-4-((4-(3-((2-(1-hydroxy-ethyl)-1H-imidazol-1-yl)methyl)isoxazol-5-yl)phenyl)ethynyl) benzenesulfonamide], the IC50 was determined as 54.7 nM. For the compound `C[C@H](O)c1nccn1Cc1cc(-c2ccc(C#Cc3ccc(CN4CC(CC(N)=O)C4)nc3)cc2)on1` [Example 122, (S)-2-(1-((5-((4-(3-((2-(1-hydroxyethyl)-1H-imidazol-1-yl)methyl)isoxazol-5-yl)phenyl)ethynyl)pyridin-2-yl)methyl)azetidin-3-yl)acetamide], the IC50 was determined as 6.71 nM. As to `C[C@H](O)c1nccn1Cc1cc(-c2ccc(C#Cc3ccc(C(=O)NCC(=O)O)cc3)cc2)on1` [Example 74, (S)-(4-((4-(3-((2-(1-hydroxy-ethyl)-1H-imidazol-1-yl)methyl)isoxazol-5-yl)phenyl)ethynyl)benzoyl)glycinate], the IC50 was determined as 21.2 nM. Consider `C[C@H](O)c1nccn1Cc1cc(-c2ccc(C#Cc3ccc(C(C)(C)N4CCOCC4)cc3)cc2)on1` [Example 94, (S)-1-(1-((5-(4-((4-(2-morpho-linopropan-2-yl)phenyl)ethynyl)phenyl)isoxazol-3-yl)methyl)-1H-imidazol-2-yl)ethan-1-ol], for which the IC50 amounted to 76.5 nM.

In the case of `C[C@H](O)c1nccn1Cc1cc(-c2ccc(C#Cc3ccc(CN4CC(C(=O)O)C4)nc3)cc2)on1` [Example 117, (S)-1-((5-((4-(3-((2-(1-hydroxyethyl)-1H-imidazol-1-yl)methyl)isoxazol-5-yl)phenyl)ethynyl)pyridin-2-yl)methyl)azetidin-3-carboxylic acid], the IC50 was found to be 18.5 nM. Regarding `C[C@H](O)c1nccn1Cc1cc(-c2ccc(C#Cc3ccc(CN4CC(CO)C4)nc3)cc2)on1` [Example 113, (S)-1-(1-((5-(4-((6-((3-(hydroxymethyl)azetidin-1-yl)methyl)pyridin-3-yl)ethynyl)phenyl)isoxazol-3-yl)methyl)-1H-imidazol-2-yl)ethan-1-ol], the IC50 turned out to be 24.6 nM. The same measure, in the same setting: the value for `C[C@H](O)c1nccn1Cc1cc(-c2ccc(C#Cc3ccc(CN4CCC(O)C(F)(F)C4)cc3)cc2)on1` (stereo partly drawn) [Example 97, 3,3-difluoro-1-(4-((4-(3-((2-((S)-1-hydroxyethyl)-1H-imidazol-1-yl)methyl)isoxazol-5-yl)phenyl)ethynyl)benzyl) piperidin-4-ol] was 31.9 nM; that for `C[C@H](O)c1nccn1Cc1cc(-c2ccc(C#Cc3ccc(C(=O)NCCO)nc3)cc2)on1` [Example 105, (S)-N-(2-hydroxyethyl)-5-((4-(3-((2-(1-hydroxyethyl)-1H-imidazol-1-yl)methyl)isoxazol-5-yl)phenyl)ethynyl) picolinamide] was 22.6 nM; that for `C[C@H](O)c1nccn1Cc1cc(-c2ccc(C#Cc3ccc(CN4CCOCC4)cc3)cn2)no1` [Example 104, (S)-1-(1-((3-(5-((4-(morpholino-methyl)phenyl)ethynyl)pyridin-2-yl)isoxazol-5-yl)methyl)-1H-imidazol-2-yl)ethan-1-ol] was 58.6 nM.

Another test deals with E. coli ATCC 25922. Briefly: Antibacterial activity, MIC by broth microdilution (CLSI). The settings on record: Escherichia coli, ATCC25922; E. coli ATCC 25922, 35° C., 18 to 24 hours; read-out: MIC(E. coli). It is filed as cell-based. The procedure:
The in vitro minimum inhibitory concentration (MIC) was determined in accordance with the CLSI guidelines, and was measured using the broth microdilution method.
The experimental process is briefly described as follows: The test compound was dissolved in DMSO to prepare a […] stock solution, which was then prepared into 11 twice-diluted 100× high-concentration working solutions (the final concentration of the system was 64 μg/mL-0.06 μg/mL) using DMSO. The strains (K. pneumoniae ATCC13883 and E. coli ATCC 25922) frozen in −80° C. glycerol were inoculated into solid agar medium, placed in an incubator at 35° C. for 18-24 hours of incubation. After the preparation of strains was completed, an appropriate amount of solid plate culture was collected, resuspended in physiological saline, and mixed well. The bacterial suspension was adjusted to a suitable turbidity using a turbidity meter, containing approximately 1×10^8 cfu/mL bacteria. Then the bacterial suspension with the adjusted turbidity was diluted to a bacterial concentration of 5×10^5 cfu/ml using the culture medium for measurement, to complete the preparation of the inoculum solution. 198 μL of the inoculum solution was inoculated into a 96-well plate, and then added with 2 μL of a 100× high-concentration working solution of the compound. Then the 96-well plate was placed at 35° C. for 18 to 24 hours of incubation.
Consider `C[C@H](O)c1nccn1Cc1cc(-c2ccc(C#Cc3ccc(OCC4CCN(C)CC4)cc3)cc2)on1` [Example 76, (S)-1-(1-((5-(4-((4-((1-methylpiperidin-4-yl)methoxy)phenyl)ethynyl)phenyl)isoxazol-3-yl)methyl)-1H-imidazol-2-yl) ethan-1-ol], for which the MIC (commonly the least concentration at which growth counts as inhibited) was 8 µg/mL (≈ 16.1 µM). In the case of `C[C@H](O)c1nccn1Cc1cc(-c2ccc(C#Cc3ccc(N4CCOCC4)cc3)cc2)on1` [Example 5], the MIC was 1 µg/mL (≈ 2.2 µM).

These data come from US20240382465A1, “AROMATIC ACETYLENE DERIVATIVE, AND PREPARATION METHOD THEREFOR AND USE THEREOF” (priority 2021, published 2024).
